Series [1] relates to Sporothrix schenkii B62482. The series can be described thus: Antifungal activity in vitro (resazurin susceptibility screen), Inf. A. Format: cell-based. As to conditions: Sporothrix, B62482, Sporothrix schenkii B62482; 27 °C, 4 days, resa time 24 hours; highest in-test concentration 64 μM; read-out: Inf. A pIC50 (converted). An outline of the steps: (§1)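 Compound serial dilutions were spotted onto test plates, kept in the dark at 4 °C for at most 2 weeks. Cryopreserved isolates were diluted 1/1000 in medium just before use and added at 10^3 cfu per well. Each plate carried drug-free culture as 100% growth and RPMI-MOPS medium alone as 0% growth.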

The test system of series [2] is Trichophyton rubrum B68183. In words: Antifungal activity in vitro (resazurin susceptibility screen), Inf. C. Conditions: Trichophyton rubrum B68183; 27 °C, 7 days, resa time 24 hours; read-out: Inf. C pIC50 (converted). The class given is cell-based. An outline of the steps:
as §1

The subject of series [3] is Aspergillus fumigatus B42928. In words: Antifungal activity in vitro (resazurin susceptibility screen), Inf. E. The class given is cell-based. As to conditions: Aspergillus fumigatus B42928; 27 °C, 48 hours, resa time 17 hours; read-out: Inf. E pIC50 (converted). In outline: as §1
Series [4] relates to Cryptococcus neoformans B66663. The series can be described thus: Antifungal activity in vitro (resazurin susceptibility screen), Inf. F. The class given is cell-based. Conditions: Cryptococcus neoformans, B66663, Cryptococcus neoformans B66663; 37 °C, 24 hours, resa time 4 hours; read-out: Inf. F pIC50 (converted). An outline of the steps:
as §1
(In general: Alamar Blue is a resazurin reagent that responds to reducing activity.)

The test system of series [5] is Trichophyton mentagrophytes B70554. In words: Antifungal activity in vitro (resazurin susceptibility screen), Inf. G. The class given is cell-based. Conditions: Trichophyton mentagrophytes, B70554, Trichophyton mentagrophytes B70554; 27 °C, 7 days, resa time 24 hours; read-out: Inf. G pIC50 (converted). An outline of the steps:
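Each well was inoculated with 10^3 cfu of fungus onto dried, pre-spotted compound serial dilutions in RPMI-MOPS medium, with fungal growth read by resazurin. Growth was referenced to drug-free culture (100%) and medium-only (0%) controls on each plate.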

Series [6] is described as follows: Liver metabolic stability assay, hLM. Format: in vitro ADME, human. As to conditions: human liver microsomes, 1 mg protein/ml, 5 μM test compound, 15 min, 37 °C. How it is done: (§2) Liver preparations (microsomal fractions) were obtained from BD Gentest (San Jose, Calif., US). Metabolic stability was assessed using the following assay conditions. […] The mixture was pre-incubated at 37° C. for 5 min and the enzymatic reaction was started by addition of 5 μM test compound. After 0 (control) and 15 minutes (min), the reactions were terminated by addition of […] (500 μl). The precipitated material was removed by centrifugation at 1200 g for 10 min. The supernatant was analysed by LC-MS/MS on a ThermoFinnigan LCQ Deca XP ion-trap mass spectrometer equipped with an atmospheric pressure chemical ionisation source. Calculation of %-compound remaining was as described by Kantharaj et al. 2003 ((Kantharaj E., Tuytelaars A, Proost P E A, Ongel Z, van […] (2003). Simultaneous measurement of drug metabolic stability and identification of metabolites using ion-trap mass spectrometry.

Series [7] is described as follows: Liver metabolic stability assay, mLM. As to conditions: mouse liver microsomes, 1 mg protein/ml, 5 μM test compound, 15 min, 37 °C. The class given is in vitro ADME. How it is done: as §2
Series [8] in a line: Liver metabolic stability assay, gpLM. The class given is in vitro ADME, guinea pig. Conditions: guinea pig microsomes, 1 mg protein/ml, 5 μM test compound, 15 min, 37 °C. How it is done:
as §2

The next series concerns the target T1, Cytochrome P450 1A2 (Homo sapiens, UniProt P05177).
T1 sequence (P05177 1-516): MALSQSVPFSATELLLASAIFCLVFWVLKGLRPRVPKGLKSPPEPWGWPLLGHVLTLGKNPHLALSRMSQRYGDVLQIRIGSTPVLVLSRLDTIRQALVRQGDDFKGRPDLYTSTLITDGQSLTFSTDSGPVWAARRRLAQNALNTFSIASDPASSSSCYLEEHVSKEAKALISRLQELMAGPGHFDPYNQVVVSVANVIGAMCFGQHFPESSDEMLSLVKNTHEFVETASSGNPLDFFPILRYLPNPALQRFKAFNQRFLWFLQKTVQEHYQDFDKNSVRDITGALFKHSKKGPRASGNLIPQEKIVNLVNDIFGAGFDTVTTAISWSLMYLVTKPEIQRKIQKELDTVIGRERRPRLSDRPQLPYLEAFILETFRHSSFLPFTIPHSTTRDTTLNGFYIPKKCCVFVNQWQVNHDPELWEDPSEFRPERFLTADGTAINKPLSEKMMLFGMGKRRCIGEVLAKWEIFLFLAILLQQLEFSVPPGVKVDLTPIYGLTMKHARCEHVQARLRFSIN
The series can be described thus: Human liver microsomal cytochrome P450 cocktail inhibition assay, Protocol C. How it is done:
(§3) Probe substrates and final assay concentrations with the appropriate internal standard are outlined in Table 6a.
(§4) Assays were performed in 0.1 M phosphate buffer (pH 7.4), containing 0.2 mg/ml human liver microsomes (BD Gentest) and a probe substrate mix consisting of: phenacetin, tolbutamide, S-mephenyloin, dextromethorphan, amodiaquine and midazolam (Table 6a) and a range of test compound concentrations (0 to 30 micromolar) in a total volume of 100 microliters. After a 10 min pre-incubation at 37° C., the reaction was started with addition of NADPH at a final concentration of 1.0 mM. […] The samples are centrifuged for 10 min at 4° C. at 4000 rpm and 60 microliters supernatant is diluted with 180 microliters water. Each sample is injected onto a UPLC/MS system for the simultaneous measurement of the probe substrate metabolites and their associated deuterated internal standards. Percentage inhibition is calculated according to: %-inhibition=(1−Ri/R)*100, whereby Ri and R are the metabolite to internal standard peak area ratios in the presence and absence of inhibitor respectively.
(§5) Percentage inhibition data are plotted against the Log transformed test compound concentration and after curve fitting the IC50-value is determined.
(Liver microsomes are vesicles of endoplasmic reticulum, rich in cytochrome P450 enzymes.)

A further series addresses Cytochrome P450 2C19 (Homo sapiens, UniProt P33261). The description is as above. As to conditions: 2C19_S-Meph pIC50, human liver microsomes 0.2 mg/ml; probe S-mephenytoin 30 microM. The protocol:
as §3, §4, §5

The next series addresses Cytochrome P450 2C9 (Homo sapiens, UniProt P11712). The series is described as above. Conditions: 2C9 Tolbut pIC50, human liver microsomes 0.2 mg/ml; probe tolbutamide 100 microM. The protocol:
as §3, §4, §5

Another series deals with Cytochrome P450 2D6 (Homo sapiens, UniProt P10635). The series is described as above. Conditions: 2D6_Dextro pIC50, human liver microsomes 0.2 mg/ml; probe dextromethorphan 3 microM. How it is done: as §3, §4, §5
Chain of Cytochrome P450 2D6 (P10635 whole entry): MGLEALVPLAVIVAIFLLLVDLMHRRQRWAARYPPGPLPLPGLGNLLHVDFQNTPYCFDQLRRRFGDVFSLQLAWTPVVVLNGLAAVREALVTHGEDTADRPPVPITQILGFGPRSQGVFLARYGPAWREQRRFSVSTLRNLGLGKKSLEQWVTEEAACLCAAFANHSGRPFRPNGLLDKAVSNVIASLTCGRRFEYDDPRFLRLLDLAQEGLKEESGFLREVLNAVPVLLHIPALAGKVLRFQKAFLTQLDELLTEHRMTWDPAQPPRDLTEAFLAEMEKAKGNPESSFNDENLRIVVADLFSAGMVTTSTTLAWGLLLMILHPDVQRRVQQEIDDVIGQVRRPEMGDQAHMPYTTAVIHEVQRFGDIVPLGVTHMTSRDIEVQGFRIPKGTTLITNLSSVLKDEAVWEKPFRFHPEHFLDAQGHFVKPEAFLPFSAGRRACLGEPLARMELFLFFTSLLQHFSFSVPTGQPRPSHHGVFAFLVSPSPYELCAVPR
Another series concerns the target T2, Cytochrome P450 2C8 (Homo sapiens, UniProt P10632).
T2 construct: tissue BD Gentest; host or cells: human liver microsomes
T2 sequence (P10632 1-490): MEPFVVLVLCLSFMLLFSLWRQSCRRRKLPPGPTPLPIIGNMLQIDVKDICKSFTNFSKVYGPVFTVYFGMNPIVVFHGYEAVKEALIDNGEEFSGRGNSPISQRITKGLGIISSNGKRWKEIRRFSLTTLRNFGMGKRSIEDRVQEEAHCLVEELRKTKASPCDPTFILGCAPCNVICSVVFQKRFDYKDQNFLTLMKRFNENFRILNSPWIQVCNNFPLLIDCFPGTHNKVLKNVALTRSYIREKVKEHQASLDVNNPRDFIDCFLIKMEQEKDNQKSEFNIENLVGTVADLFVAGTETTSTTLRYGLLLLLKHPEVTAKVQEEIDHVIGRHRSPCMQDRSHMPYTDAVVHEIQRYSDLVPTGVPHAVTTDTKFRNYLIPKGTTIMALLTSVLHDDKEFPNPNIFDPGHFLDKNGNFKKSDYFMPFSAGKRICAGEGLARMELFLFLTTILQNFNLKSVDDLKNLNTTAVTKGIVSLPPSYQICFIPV
Described as above. As to conditions: human liver microsomes 0.2 mg/ml; probe amodiaquine 2 microM; read-out: 2C8_Amod pIC50 (converted). Format: in vitro ADME. The protocol: as §3, §4, §5

Some results are limits rather than exact numbers.

Chain of Cytochrome P450 2C9 (P11712 whole entry): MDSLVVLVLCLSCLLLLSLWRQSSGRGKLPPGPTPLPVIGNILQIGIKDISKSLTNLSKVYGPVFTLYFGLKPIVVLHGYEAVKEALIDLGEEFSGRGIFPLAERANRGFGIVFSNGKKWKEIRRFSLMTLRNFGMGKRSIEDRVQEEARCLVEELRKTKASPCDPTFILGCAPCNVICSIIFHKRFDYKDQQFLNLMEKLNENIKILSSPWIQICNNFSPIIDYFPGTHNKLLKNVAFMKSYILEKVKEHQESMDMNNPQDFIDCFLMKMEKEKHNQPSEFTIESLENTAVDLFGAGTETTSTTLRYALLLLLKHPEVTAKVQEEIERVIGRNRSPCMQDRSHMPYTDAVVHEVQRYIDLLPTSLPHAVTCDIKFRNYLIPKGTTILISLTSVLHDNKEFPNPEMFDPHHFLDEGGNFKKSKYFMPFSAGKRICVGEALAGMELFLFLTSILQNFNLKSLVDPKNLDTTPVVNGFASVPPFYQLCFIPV
Chain of Cytochrome P450 2C19 (P33261 whole entry): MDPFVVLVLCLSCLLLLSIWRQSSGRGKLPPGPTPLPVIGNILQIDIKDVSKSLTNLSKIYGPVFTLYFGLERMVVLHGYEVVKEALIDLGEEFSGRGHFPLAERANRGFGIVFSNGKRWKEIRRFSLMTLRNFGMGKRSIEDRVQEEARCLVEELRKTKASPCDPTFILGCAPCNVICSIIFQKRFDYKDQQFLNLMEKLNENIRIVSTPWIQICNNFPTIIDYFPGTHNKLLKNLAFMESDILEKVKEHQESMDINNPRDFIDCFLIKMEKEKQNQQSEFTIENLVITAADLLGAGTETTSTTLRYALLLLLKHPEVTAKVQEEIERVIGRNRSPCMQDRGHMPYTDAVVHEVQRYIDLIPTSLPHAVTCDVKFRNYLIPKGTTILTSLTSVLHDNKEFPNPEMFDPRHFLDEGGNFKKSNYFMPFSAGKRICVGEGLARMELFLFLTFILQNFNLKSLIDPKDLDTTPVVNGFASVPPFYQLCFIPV

As to `CC(=O)c1ccc(C2NCc3c(Cl)cccc3-n3cccc32)cc1.Cl` (centres unmarked) [Compound 5, 1-[4-(7-chloro-5,6-dihydro-4H-pyrrolo[1,2-a][1,4]benzodiazepin-4-yl)phenyl]-ethanone .HCl], the IC50 is 39.8 µM in series [1]; 0.501 µM in [2]; 2 µM in [3]; 25.1 µM in series [4]; 0.631 µM in [5]. Besides, in series [6], the “%-compound metabolised_Met_hLM” value worked out at 59%. Further, the “%-compound metabolised Met_mLM” value in [7] came out at 72%. Besides, the “%-compound metabolised Met_gpLM” value in [8] amounted to 88%.

`CC(=O)c1ccc(C2=NCc3c(Cl)cccc3-n3cccc32)cc1` [drawing 91]: the IC50 against Cytochrome P450 1A2, on Cytochrome P450 2C19, at Cytochrome P450 2C9, on Cytochrome P450 2D6 and on Cytochrome P450 2C8 was greater than 10 µM in each case.

As for `CCc1ccc(C2=NCc3c(Cl)cccc3-n3cccc32)cc1` [drawing 92], the IC50 against Cytochrome P450 1A2 was greater than 10 µM; against Cytochrome P450 2C19, 1.58 µM; against Cytochrome P450 2C9 it was greater than 10 µM; on Cytochrome P450 2D6 it was greater than 10 µM; on Cytochrome P450 2C8, greater than 10 µM.

With `CS(=O)(=O)c1ccc(C2=NCc3c(Cl)cccc3-n3cccc32)cc1` [drawing 93], the IC50 at Cytochrome P450 1A2 was greater than 10 µM; at Cytochrome P450 2C19 it was greater than 10 µM; at Cytochrome P450 2C9, greater than 10 µM; against Cytochrome P450 2D6 it was 7.59 µM; on Cytochrome P450 2C8, greater than 10 µM.

For the compound `CC(O)c1ccc(C2NCc3c(Cl)cccc3-n3cccc32)cc1` (centres unmarked) [drawing 97], the IC50 on Cytochrome P450 1A2 was greater than 10 µM; on Cytochrome P450 2C19, 5.13 µM; on Cytochrome P450 2C9, greater than 10 µM; on Cytochrome P450 2D6 it was greater than 10 µM; on Cytochrome P450 2C8, greater than 10 µM.

Regarding `CC(=O)c1cccc(C2NCc3c(Cl)cccc3-n3cccc32)c1` (centres unmarked) [drawing 99], the IC50 was greater than 10 µM on Cytochrome P450 1A2; 0.158 µM against Cytochrome P450 2C19; 1.58 µM at Cytochrome P450 2C9; 3.16 µM against Cytochrome P450 2D6; 7.94 µM at Cytochrome P450 2C8.

As for `CC(=O)c1ccc(C2NCc3ccc(Cl)cc3-n3cccc32)cc1` (centres unmarked) [drawing 101], the IC50 was greater than 10 µM against Cytochrome P450 1A2; 3.16 µM against Cytochrome P450 2C19; 6.31 µM against Cytochrome P450 2C9; 7.94 µM against Cytochrome P450 2D6; 7.94 µM at Cytochrome P450 2C8.
